In ChEMBL document CHEMBL1649156, “Antianaerobic activity of sulopenem compared to six other agents” (2009):

What was measured:
Type in all cases: functional
[1] = tested on: Prevotella disiens; experiment: Antimicrobial activity in Prevotella disiens by CLSI agar dilution method
[2] = tested on: Parabacteroides distasonis; experiment: Antimicrobial activity in Bacteroides distasonis by CLSI agar dilution method
[3] = tested on: Clostridium sp.; experiment: Antimicrobial activity in Clostridium sp. by CLSI agar dilution method
[4] = tested on: Bacteroides ovatus; experiment: Antimicrobial activity in Bacteroides ovatus by CLSI agar dilution method
[5] = tested on: Clostridium perfringens; experiment: Antimicrobial activity in Clostridium perfringens by CLSI agar dilution method
[6] = tested on: Clostridium butyricum; experiment: Antimicrobial activity in Clostridium butyricum by CLSI agar dilution method
[7] = tested on: Bacteroides fragilis; experiment: Antimicrobial activity in Bacteroides fragilis by CLSI agar dilution method
[8] = tested on: Fusobacterium nucleatum; experiment: Antimicrobial activity in Fusobacterium nucleatum by CLSI agar dilution method
[9] = tested on: Thomasclavelia ramosa; experiment: Antimicrobial activity in Clostridium ramosum by CLSI agar dilution method
[10] = tested on: Prevotella veroralis; experiment: Antimicrobial activity in Prevotella veroralis by CLSI agar dilution method
[11] = tested on: Peptostreptococcus anaerobius; experiment: Antimicrobial activity in Peptostreptococcus anaerobius by CLSI agar dilution method
[12] = tested on: Prevotella melaninogenica; experiment: Antimicrobial activity in Prevotella melaninogenica by CLSI agar dilution method
[13] = tested on: Paeniclostridium sordellii; experiment: Antimicrobial activity in Clostridium sordellii by CLSI agar dilution method; details: Paraclostridium sordellii
[14] = tested on: Bacteroides thetaiotaomicron; experiment: Antimicrobial activity in Bacteroides thetaiotaomicron by CLSI agar dilution method
[15] = tested on: Clostridium cadaveris; experiment: Antimicrobial activity in Clostridium cadaveris by CLSI agar dilution method
[16] = tested on: Prevotella nigrescens; experiment: Antimicrobial activity in Prevotella nigrescens by CLSI agar dilution method
[17] = tested on: Hoylesella oralis; experiment: Antimicrobial activity in Prevotella oralis group by CLSI agar dilution method
[18] = tested on: Porphyromonas asaccharolytica; experiment: Antimicrobial activity in Porphyromonas asaccharolytica by CLSI agar dilution method
[19] = tested on: Hoylesella loescheii; experiment: Antimicrobial activity in Prevotella loescheii by CLSI agar dilution method
[20] = tested on: Prevotella bivia; experiment: Antimicrobial activity in Prevotella bivia by CLSI agar dilution method
[21] = tested on: Anaerococcus prevotii; experiment: Antimicrobial activity in Anaerococcus prevotii by CLSI agar dilution method
[22] = tested on: Prevotella sp.; experiment: Antimicrobial activity in Prevotella sp.by CLSI agar dilution method
[23] = tested on: Prevotella baroniae; experiment: Antimicrobial activity in Prevotella baroniae by CLSI agar dilution method; details: Segatella baroniae
[24] = tested on: Actinomyces; experiment: Antimicrobial activity in Actinomyces by CLSI agar dilution method
[25] = tested on: Bacteroides uniformis; experiment: Antimicrobial activity in Bacteroides uniformis by CLSI agar dilution method
[26] = tested on: Bifidobacterium; experiment: Antimicrobial activity in Bifidobacterium by CLSI agar dilution method
[27] = tested on: Prevotella corporis; experiment: Antimicrobial activity in Prevotella corporis by CLSI agar dilution method
[28] = tested on: Phocaeicola vulgatus; experiment: Antimicrobial activity in Bacteroides vulgatus by CLSI agar dilution method
[29] = tested on: Parvimonas micra; experiment: Antimicrobial activity in Micromonas micros by CLSI agar dilution method
[30] = tested on: Eggerthella lenta; experiment: Antimicrobial activity in Eggerthella lenta by CLSI agar dilution method
[31] = tested on: Fusobacterium varium; experiment: Antimicrobial activity in Fusobacterium varium by CLSI agar dilution method
[32] = tested on: Lactobacillus; experiment: Antimicrobial activity in Lactobacillus by CLSI agar dilution method
[33] = tested on: Bacteroides stercoris; experiment: Antimicrobial activity in Bacteroides stercoris by CLSI agar dilution method
[34] = tested on: Prevotella intermedia; experiment: Antimicrobial activity in Prevotella intermedia by CLSI agar dilution method
[35] = tested on: Prevotella salivae; experiment: Antimicrobial activity in Prevotella salivae by CLSI agar dilution method; details: Segatella salivae
[36] = tested on: Peptoniphilus asaccharolyticus; experiment: Antimicrobial activity in Peptoniphilus asaccharolyticus by CLSI agar dilution method
[37] = tested on: Clostridium tertium; experiment: Antimicrobial activity in Clostridium tertium by CLSI agar dilution method
[38] = tested on: Enterocloster clostridioformis; experiment: Antimicrobial activity in Clostridium clostridioforme by CLSI agar dilution method
[39] = tested on: Finegoldia magna; experiment: Antimicrobial activity in Finegoldia magna by CLSI agar dilution method
[40] = tested on: Fusobacterium mortiferum; experiment: Antimicrobial activity in Fusobacterium mortiferum by CLSI agar dilution method
[41] = tested on: Cutibacterium acnes; experiment: Antimicrobial activity in Propionibacterium acnes by CLSI agar dilution method
[42] = tested on: Prevotella buccae; experiment: Antimicrobial activity in Prevotella buccae by CLSI agar dilution method; details: Segatella buccae
[43] = tested on: [Clostridium] innocuum; experiment: Antimicrobial activity in Clostridium innocuum by CLSI agar dilution method
[44] = tested on: Paraclostridium bifermentans; experiment: Antimicrobial activity in Clostridium bifermentans by CLSI agar dilution method
[45] = tested on: Anaerococcus tetradius; experiment: Antimicrobial activity in Anaerococcus tetradius by CLSI agar dilution method
[46] = tested on: Porphyromonas gingivalis; experiment: Antimicrobial activity in Porphyromonas gingivalis by CLSI agar dilution method
[47] = tested on: Prevotella denticola; experiment: Antimicrobial activity in Prevotella denticola by CLSI agar dilution method
[48] = tested on: Tissierella praeacuta; experiment: Antimicrobial activity in Clostridium hastiforme by CLSI agar dilution method
[49] = tested on: Clostridioides difficile; experiment: Antimicrobial activity in Clostridium difficile by CLSI agar dilution method
[50] = tested on: Prevotella bergensis; experiment: Antimicrobial activity in Prevotella bergensis by CLSI agar dilution method; details: Hallella bergensis
[51] = tested on: Fusobacterium necrophorum; experiment: Antimicrobial activity in Fusobacterium necrophorum by CLSI agar dilution method

C[C@@H](O)[C@H]1C(=O)N2C(C(=O)O)=C(SCCNC=N)C[C@H]12 [IMIPENEM ANHYDROUS]
0.03 mg/L: MIC [1] | MIC50 [8] | MIC [10] | MIC50 [12] | MIC [19] | MIC [20] | MIC50 [20] | MIC [22] | MIC [23] | MIC [26] | MIC50 [26] | MIC [29] | MIC50 [29] | MIC [35] | MIC50 [41] | MIC90 [41] | MIC [42] | MIC50 [42] | MIC50 [45] | MIC50 [47]
0.06 mg/L: MIC50 [1] | MIC90 [8] | MIC [11] | MIC50 [11] | MIC [13] | MIC90 [16] | MIC [24] | MIC90 [29] | MIC90 [34] | MIC [39] | MIC50 [39] | MIC90 [45] | MIC [50]
0.125 mg/L: MIC [4] | MIC50 [4] | MIC50 [5] | MIC90 [5] | MIC50 [7] | MIC90 [12] | MIC [15] | MIC50 [24] | MIC90 [26] | MIC90 [39] | MIC90 [42] | MIC [43] | MIC90 [47]
1 mg/L: MIC90 [2] | MIC50 [3] | MIC90 [3] | MIC90 [11] | MIC90 [31] | MIC50 [32] | MIC [38] | MIC90 [40]
0.25 mg/L: MIC90 [4] | MIC90 [7] | MIC [9] | MIC [14] | MIC50 [14] | MIC90 [14] | MIC90 [20] | MIC [25] | MIC50 [25] | MIC [33] | MIC50 [33] | MIC [37] | MIC50 [37] | MIC [44]
2 mg/L: MIC90 [32] | MIC [48]
≤ 0.016 mg/L: MIC [16] | MIC50 [16] | MIC [17] | MIC [18] | MIC [21] | MIC [27] | MIC50 [27] | MIC [34] | MIC50 [34] | MIC [36] | MIC50 [36] | MIC [46] | MIC [51] | MIC50 [51]
4 mg/L: MIC50 [49] | MIC90 [49]
0.5 mg/L: MIC50 [2] | MIC [6] | MIC50 [28] | MIC90 [28] | MIC50 [30] | MIC90 [30] | MIC [31] | MIC50 [31] | MIC50 [40]
